Reference: patent US20030229122A1, “Use of methylphenidate compounds to enhance memory” (Sention, Inc., priority 2000, published 2003)
Entries after “also recorded” stand apart in the source; their conditions may differ.

How the values were obtained:
[1] = test system: rats with lesions of the fornix; experiment: Inhibitory Avoidance (IA) task in rats with lesions of the fornix (amnesic rats); type: in vivo, rat; details: 5 mg/kg, tested one hour after injection
From the text: Applicants have previously described an animal model for studying fornix-mediated memory consolidation. See, for example, Taubenfield et al., Supra. The fornix-lesioned animals can be used for drug screening, e.g., to identify dosages of the subject compositions which enhance memory consolidation. The lesioned mammal can have a lesion of the fornix or a related brain structure that disrupts memory consolidation (e.g., perirhinal cortex, amygdala, medial septal nucleus, locus coeruleus, hippocampus, mammillary bodies). Lesions in the mammal can be produced by mechanical or chemical disruption. For example, the fornix lesion can be caused by surgical ablation, electrolytic, neurotoxic and other chemical ablation techniques, or reversible inactivation such as by injection of an anesthetic, e.g., tetrodotoxin or lidocaine, to temporarily arrest activity in the fornix.
In one embodiment, the animal can be a rat. Briefly, the animals are anesthetized, e.g., with intraperitoneal injections of a ketamine-xylazine mixture and positioned in a Kopf stereotaxic instrument. A sagittal incision is made in the scalp and a craniotomy is performed extending 2.0 mm posterior and 3.0 mm lateral from Bregma. […]

[2] = test system: IA memory in the rat; experiment: Inhibitory Avoidance (IA) task, retention latency in normal rats; type: in vivo
Protocol: An exemplary passive avoidance test utilizes an apparatus that consists of a lit chamber that can be separated from a dark chamber by a sliding door. At training, the animal is placed in the lit chamber for some period of time, and the door is opened. The animal moves to the dark chamber after a short delay—the latency—that is recorded. Upon entry into the dark chamber, the door is shut closed and a foot shock is delivered. Retention of the experience is determined after various time intervals, e.g., 24 or 48 hours, by repeating the test and recording the latency. The protocol is one of many variants of the passive avoidance procedures (for review, see Rush (1988) Behav Neural Biol 50:255).
The Inhibitory Avoidance (IA) task is a well-studied behavioral paradigm which can provide the researcher with a consistent and long-lasting measure of memory. The paradigm consists of one training trial and one retention trial. Test articles may be administered to the rats either before or after training. Improved memory, as a result of test compound administration, is evident as increased latency on the retention trial. The objective of the following experiments was to investigate the effects of methylphenidate on IA memory in the rat.
In this experiment, rats were injected with three different doses of methylphenidate thirty minutes prior to training on the IA task.
Rats were injected with 5 mg/kg of methylphenidate and trained on the IA task.
In this experiment, the time of drug administration was varied in order to determine the optimal pre-training drug administration time.
This experiment was conducted in order to determine whether the enhanced retention observed in Experiment 2 was long-lasting. Rats received a second retention test one week after the first retention test. No additional training or drug was administered to the animals in the interim period.
In the next experiment, we investigated whether the performance of amnesic rats could be improved by administration of methylphenidate. In this experiment, control rats and rats with lesions of the fornix received injections of either saline or methylphenidate (5 mg/kg), and one hour later, were tested on the IA task.

COC(=O)C(c1ccccc1)C1CCCCN1 (stereo not drawn) [methylphenidate, methyl α-phenyl-2-piperidineacetate]
IA performance of fornix lesion rats (FIG. 3) [1]: appeared to improve; also recorded: not significantly different from normal, saline injected animals | IA performance of normal rats (FIG. 3) ([2]; normal control rats, 5 mg/kg, tested one hour after injection, post hoc p<0.05, 5 mg/kg): dramatically enhanced; also recorded: significantly enhanced relative to all other experimental groups | retention on the IA task (FIG. 1) ([2]; rats, 5 mg/kg injected thirty minutes prior to training): improved retention | optimal pre-training drug administration time ([2]; rats, 5 mg/kg, time of administration varied): most effective when administered to the rats one hour prior to training | retention of the IA task, verifying experiment (FIG. 2) ([2]; rats, 5 mg/kg, unpaired t-test p<0.03): significantly improved retention | retention on the IA task (FIG. 1) ([2]; rats, 10 mg/kg injected thirty minutes prior to training): no effect | retention on the IA task (FIG. 1) ([2]; rats, 15 mg/kg injected thirty minutes prior to training): no effect | long-term retention, second retention test ([2]; rats, one week after the first retention test, no additional training or drug, t(54)=2.358, p<0.0220): still significantly enhanced
